Here are results for ten compounds from patent publication US5718900A, “Vaccines and methods for preventing and treating Fescue toxicosis in herbivores” (priority 1994, dated 1998).

In assay [1] the test system is Angus steers. As to conditions: literature report; cited from earlier work.
For assay [2], the system named is monoclonal antibody 15F3.E5. Nature of the assay: Cross-reactivity of the monoclonal antibody, competitive ELISA on PLL-lysergic acid coated plates. In kind it is binding, mouse. As to conditions: for IC50: antibody diluted 1:50, pre-incubated 1 h with lysergic acid derivative, absorbance at 405 nm, read-out: Molar Concentration at 50% Maximum Absorbance; for cross reaction of 15F3.E5 with lysergic acid derivative: at the concentrations tested. As for the experimental part:
Mouse monoclonal antibody was diluted 1:50 in ELISA diluent. Working dilutions of various lysergic acid derivatives ranging between 1.78×10^-6 to 3.93×10^-15 M were made in 1:10 increments in PBS and 50 uL aliquots were pre-incubated for 1 h with 50 uL of diluted antibody at room temperature. To determine presence of unbound antibody, pre-incubated antibody/lysergic derivatives were transferred to ELISA plates pre-coated with PLL-lysergic acid for 2 h at room temperature. After washing, ELISA plates were treated with 1:500 dilution of rabbit derived antimouse antibody conjugated to alkaline phosphatase:ELISA diluent for 2 h at room temperature and washed. Fifty microliters of alkaline phosphate substrate was added to each well and the characteristic yellow color indicating binding of mouse antibody to the PLL-lysergic acid measured at 405 nm on a Titertek Multiskan Model MCC/340 plate reader.
On the technique in general: In an ELISA, binding on a coated surface is turned into a signal by an enzyme label.

In assay [3] the test system is fescue toxicosis. As to conditions: literature report; cited from earlier work.

Counter-ions that a name gives are not always drawn.

Regarding `CCN(CC)CCNC(=O)c1cc(Cl)c(N)cc1OC` [metoclopramide], the “effect on serum prolactin, weight gains and hair coats” value in assay [1] was “increased serum prolactin and weight gains”.

Consider `CC(C)C1C(=O)N2CCCC2C2(O)OC(NC(=O)C3CC4c5cccc6[nH]cc(c56)CC4N(C)C3)(C(C)C)C(=O)N12` (stereo not shown) [dihydro-ergocornine], for which the IC50 in assay [2] was more than 1680 nM.

Consider `C[C@@H](CO)NC(=O)[C@@H]1C=C2c3cccc4[nH]cc(c34)C[C@H]2N(C)C1` [Ergonovine], for which, in assay [2], the IC50 is 1.69 nM and the “cross reaction of 15F3.E5 with lysergic acid derivative” value (“cross reaction of 15F3.E5” for short) is “cross reaction”.

`Cc1ncc(C[n+]2csc(CCO)c2C)c(N)n1` [thiamine]: in assay [3], the “effect on symptoms of fescue toxicosis” value is recorded as “partially alleviated symptoms”.

Consider `CN1C[C@H](CO)C=C2c3cccc4[nH]cc(c34)C[C@H]21` [Lysergol], for which the “cross reaction of 15F3.E5” value in assay [2] is on record as “cross reaction”.

For the compound `CN1C[C@H](C(=O)O)C=C2c3cccc4[nH]cc(c34)C[C@H]21` [Lysergic Acid], in assay [2], the IC50 was 0.0373 nM and the “cross reaction of 15F3.E5” value was “cross reaction”.

For `CC(C)[C@@]1(NC(=O)[C@@H]2C[C@@H]3c4cccc5[nH]cc(c45)C[C@H]3N(C)C2)O[C@@]2(O)[C@@H]3CCCN3C(=O)[C@H](Cc3ccccc3)N2C1=O` [dihydro-ergocristine], the IC50 in assay [2] is more than 1780 nM.

For the compound `CN1C[C@H](C(=O)N[C@]2(C)O[C@@]3(O)[C@@H]4CCCN4C(=O)[C@H](Cc4ccccc4)N3C2=O)C=C2c3cccc4[nH]cc(c34)C[C@H]21` [Ergotamine tartrate], in assay [2], the IC50 is 7.69 nM and the “cross reaction of 15F3.E5” value is “cross reaction”.

With `CC(C)C[C@H]1C(=O)N2CCC[C@H]2[C@]2(O)O[C@](NC(=O)[C@@H]3C=C4c5cccc6[nH]c(Br)c(c56)C[C@H]4N(C)C3)(C(C)C)C(=O)N12` [2-bromo-a-ergocryptine], the IC50 in assay [2] is more than 1330 nM.

`CC(C)[C@H]1C(=O)N2CCC[C@H]2[C@]2(O)O[C@@](C)(NC(=O)[C@@H]3C=C4c5cccc6[nH]cc(c56)C[C@H]4N(C)C3)C(=O)N12` [Ergovaline]: the “cross reaction of 15F3.E5” value in assay [2] is listed as “cross reaction”.
